# Measured values published in patent publication US20240391940A1, “FUSED RING-CONTAINING COMPOUND, APPLICATION THEREOF, AND COMPOSITION CONTAINING SAME” (GenEros Biopharma Ltd., priority 2020, published 2024).
# Several values for one entry are separate records, joined by “and”; a condition that tells them apart may be missing. Identical values can stand only once.
# Columns and labels:
# [1] = tested on: Apoe KO mouse atherosclerosis model; assay: Atherosclerosis model: aortic plaque En-face staining and plaque area; assay type: in vivo, C57BL/6 Apoe KO mice; details: HFD + 284-60 mpk, PO QD 8 W, individual mice; in % (unit assumed)
# Protocol: (§1) Method: Apoe KO mice were tested for basal blood lipid levels and divided into a normal control group and a high-fat group. After 8 weeks of housing, the mice from the high-fat group were divided into 4 groups of about 8: a normal diet group (Chow), a high-fat diet model group (HFD), an Atorvastatin positive group (HFD+atorvastatin 5 mpk, QD), and a GEN1-284s group (284-60 mpk, QD). Oral administration was performed for 8 consecutive weeks, and the effect of the compound on the following indicators in Apoe KO mice was observed: 4 blood lipid tests (TC, TG, HDL-C and LDL-C), aortic plaque En-face staining, and pathological oil red staining of the cardiac outflow tract.
# (§2) Mice from the groups except for the normal diet control group (Chow) were fed with high-fat feed every day for […]. From week 9, each group was orally administered solvent or a corresponding test compound, and body weight data were recorded every day for 8 consecutive weeks. After the first 8 weeks' high-fat diet, blood samples were taken and centrifuged to separate serum, and the serum was tested for blood lipid levels (TCHO, TG, LDL-C and HDL-C). The mice were randomly grouped according to the TCHO results and body weight. During the subsequent 8 weeks of administration, blood lipid tests (TCHO, TG, LDL-C and HDL-C) were run once every 4 weeks.
# At the end of the experiment, the mice were euthanized by CO2 inhalation, and their hearts and aortas (from the aortic arch to the iliac artery) were isolated. The isolated artery was dissected longitudinally from the aortic arch to the iliac artery, fixed in 4% paraformaldehyde for 30 min, synchronized with 60% isopropanol for 10 min, then stained in 60% oil red for 30 min, and then washed with 60% isopropanol 3 times for 5 min each time. Finally, the stained aorta was washed with deionized water and photographed. The proportion of red plaque areas was measured using Image Pro Plus 6.0 (Media Cybernetics, MD, US).
# [2] = tested on: Apoe KO mouse atherosclerosis model; assay: Atherosclerosis model (Apoe KO mice, high-fat diet): blood lipid tests TCHO, TG, LDL-C, HDL-C; assay type: in vivo, C57BL/6 Apoe KO mice; parameters: blood lipids (CHO) in Apo E−/− mice / blood lipids (TG) in Apo E−/− mice / blood lipids (HDL-C) in Apo E−/− mice / blood lipids (LDL-C) in Apo E−/− mice: unit not given here; details: HFD + 284-60 mpk
# Protocol: as §1, §2
# Mice were fasted overnight, and blood (150 μL) was collected via mandibular blood sampling or eye ball removal (for endpoint only) and left at room temperature for 2 h. The blood was centrifuged at 4° C. at 7000 rpm for 10 min, and serum was pipetted, quick-frozen in dry ice and then stored at −80° C. before analysis. The serum was tested for the biochemical indicators TCHO, TG, LDL-C and HDL-C using kits and a microplate reader.
# [3] = tested on: Apoe KO mouse atherosclerosis model; assay: Atherosclerosis model: plaques in the cardiac (left ventricular) outflow tract; assay type: in vivo, C57BL/6 Apoe KO mice; details: HFD + 284-60 mpk, PO QD 8 W, individual mice; in %
# Protocol: as §1, §2
# Mouse heart samples were fixed overnight in 4% paraformaldehyde solution and dehydrated in sucrose solution. Then, the samples were embedded with OCT (Sakura, Japan) under a stereo microscope and made into 10 μm frozen sections. The sections were stained with oil red ORO and then subjected to routine pathological examinations. Images of the outflow tract were acquired under an optical microscope at 4× magnification, and high-quality morphological observations were carried out using an eyepiece with 20× magnification. The percentage of intimal lesions in the cardiac outflow tract was calculated. The detection criteria followed the criteria for histological classification of human atherosclerotic disease, which are described in detail below:
# The area of plaques in the left ventricular outflow tract was measured using a microscope, and the proportion of plaques in the left ventricular outflow tract was calculated; this value reflects the degree of stenosis in the cardiac outflow tract vessel.
# [4] = tested on: IMQ-induced psoriasis mouse model; assay: IMQ-induced psoriasis mouse model (PASI scoring); assay type: in vivo, Balb/c mice; parameters: key to skin thickening in psoriasis mice (score) / skin redness in psoriasis mice (score) / skin scaling in psoriasis mice (score): 0 = none to 4 = very severe, per sign; details: 284-30 (30 mpk PO QD)
# Protocol: Method: This experiment used a total of 19 mice. A natural skin observation control (n=1). 2 cm^2 of hair was shaved off the backs of […] on day 0, the stubble was removed with a mild depilatory cream, and the original skin was photographed. 62.5 mg of IMQ was applied to each of the mice. There was a mock group (n=6), a DEX (3 mg/kg, PO., qD) group (n=6), and a GEN1-284s (30 mg/kg, PO, qD) group (n=6). On the day of modeling, administration was performed in a volume of 100 μL/20 g body weight 4 h after IMQ application. The PASI scoring method was used to score the erythema, swelling and scaling on the skin of the mice. The experiment took a total of 6 days. The first day was set to day 0. IMQ application and administration were not performed on day 5. The mice were sacrificed with carbon dioxide at the end of the experiment.
# The test animals were anesthetized with isoflurane. 2 cm^2 of hair was shaved off the backs of the mice, and the stubble was removed with a depilatory cream. IMQ application was performed for a total of 5 days, from day 0 to day 4. Scoring and IMQ application were performed every morning. Administration was performed in the afternoon
# Desquamation (D): means epidermal cells flake off. The severity scores of skin lesions were as follows: • 0=none; this sign cannot be confirmed by careful observation • 1=mild; this sign can be confirmed but careful observation is required • 2=moderate; this sign is more visible and can be confirmed immediately • 3=severe; this sign is marked. • 4=very severe; this sign is very marked.
# Induration I: 0—skin lesions are at the same level as normal skin; • 1—skin lesions are at slightly higher levels than normal skin surface; • 2—lesions moderately stick out and have round or slope-shaped borders; • 3—skin lesions are thick and markedly stick out; • 4—skin lesions are very thick and very markedly stick out.
# Erythema E: • 0—no visible erythema; • 1—light red; • 2—red; • 3—dark red; • 4—the red is very dark
# [5] = DAY 1, individual mice, 30 mg/kg
# [6] = DAY 2, individual mice, 30 mg/kg
# [7] = DAY 3, individual mice, 30 mg/kg
# [8] = DAY 4, individual mice, 30 mg/kg
# [9] = DAY 5, individual mice, 30 mg/kg
smiles,measurement,setting,value
O=C(Cc1ccc2ncccc2c1)N1CCC(n2c(=O)n(COP(=O)(O)O)c3cccc(C(F)(F)F)c32)CC1 [Compound 284],atherosclerotic plaques in mice (proportion of arterial plaque area),[1],14.51 and 15.36 and 6.043 and 8.803 and 8.747 and 3.497 and 13.32 and 11.93
same,blood lipids (CHO) in Apo E−/− mice,"[2]; Time 1, individual mice",0.7986 and 0.8043 and 0.8562 and 0.7873 and 0.8278 and 1.372 and 1.184
same,blood lipids (HDL-C) in Apo E−/− mice,"[2]; Time 1, individual mice",1.371 and 0.5315 and 1.057 and 0.9966 and 1.123 and 1.022 and 1.153
same,blood lipids (LDL-C) in Apo E−/− mice,"[2]; Time 1, individual mice",0.6872 and 1.011 and 0.7654 and 0.5196 and 0.7151 and 1.05 and 1.587
same,blood lipids (TG) in Apo E−/− mice,"[2]; Time 1, individual mice",0.4337 and 0.6308 and 0.6265 and 0.755 and 0.7465 and 0.995 and 1.031
same,blood lipids (CHO) in Apo E−/− mice,"[2]; Time 2, individual mice",1.233 and 0.8693 and 1.165 and 0.9214 and 0.6106 and 1.043 and 0.9931 and 1.18
same,blood lipids (HDL-C) in Apo E−/− mice,"[2]; Time 2, individual mice",2.122 and 0.9935 and 0.9789 and 1.033 and 0.8106 and 1.037 and 1.827 and 1.565
same,blood lipids (LDL-C) in Apo E−/− mice,"[2]; Time 2, individual mice",1.374 and 0.6809 and 2.129 and 1.097 and 0.9183 and 1.393 and 1.144 and 0.9377
same,blood lipids (TG) in Apo E−/− mice,"[2]; Time 2, individual mice",1.051 (2×) and 0.7809 and 1.131 and 1.303 and 1.009 and 1.451 and 1.117
same,blood lipids (CHO) in Apo E−/− mice,"[2]; Time 3, individual mice",1.388 and 0.8444 and 1.354 and 0.78 and 1.427 and 1.407 and 1.241 and 1.477
same,blood lipids (HDL-C) in Apo E−/− mice,"[2]; Time 3, individual mice",2.24 and 0.5362 and 0.9059 and 0.8576 and 1.163 and 1.018 (2×) and 1.067
same,blood lipids (LDL-C) in Apo E−/− mice,"[2]; Time 3, individual mice",1.218 and 0.622 and 1.641 and 0.9017 and 1.494 and 1.215 and 2.628 and 1.406
same,blood lipids (TG) in Apo E−/− mice,"[2]; Time 3, individual mice",0.8373 and 0.8015 and 1.448 and 0.7657 and 0.9226 and 1.222 and 1.943 and 1.2
same,blood lipids (CHO) in Apo E−/− mice,"[2]; Time 4, individual mice",1.59 and 1.257 and 1.396 and 0.4939 and 0.5475 and 1.048 and 1.029 and 1.174
same,blood lipids (HDL-C) in Apo E−/− mice,"[2]; Time 4, individual mice",1.04 and 0.5331 and 1.239 and 0.8199 and 0.5772 and 0.511 and 0.5552 and 1.57
same,blood lipids (LDL-C) in Apo E−/− mice,"[2]; Time 4, individual mice",1.177 and 0.9355 and 0.8511 and 0.1725 and 0.4792 and 1.162 and 1.093 and 0.5061
same,blood lipids (TG) in Apo E−/− mice,"[2]; Time 4, individual mice",1.059 and 0.6674 and 1.093 and 0.7289 and 1.028 and 0.7597 and 1.227 and 1.278
same,plaques in the cardiac outflow tracts of mice (proportion of plaques in the left ventricular outflow tract),[3],3.172 and 8.444 and 8.652 and 1.278 and 0.625 and 2.394 and 7.368
same,overall effect on the skin of psoriasis mice (score),"[4]; DAY 0, individual mice",0
same,skin redness in psoriasis mice (score),"[4]; DAY 0, individual mice",0
same,skin scaling in psoriasis mice (score),"[4]; DAY 0, individual mice",0
same,skin thickening in psoriasis mice (score),"[4]; DAY 0, individual mice",0
same,overall effect on the skin of psoriasis mice (score),[4]; [5],1.667 and 1.167 and 1 and 2.333 and 2 and 0.6667
same,skin redness in psoriasis mice (score),[4]; [5],1 and 0.6667 and 0.8333 and 0.5 and 1.167 and 0
same,skin scaling in psoriasis mice (score),[4]; [5],0.1667 (3×) and 0 and 0.8333 and 0.3333
same,skin thickening in psoriasis mice (score),[4]; [5],0.5 (4×) and 0 and 1
same,overall effect on the skin of psoriasis mice (score),[4]; [6],1.5 (2×) and 2 and 1.333 and 2.333 (2×)
same,skin redness in psoriasis mice (score),[4]; [6],0.8333 and 1 and 0.5 (2×) and 0.3333 and 0.1667
same,skin scaling in psoriasis mice (score),[4]; [6],0.1667 and 0.5 and 0.3333 and 0.8333 (2×) and 1
same,skin thickening in psoriasis mice (score),[4]; [6],0.5 (4×) and 1 (2×)
same,overall effect on the skin of psoriasis mice (score),[4]; [7],3.333 (3×) and 2.333 and 2.5 and 2.167
same,skin redness in psoriasis mice (score),[4]; [7],1 (2×) and 0.8333 (2×) and 0.6667 and 0.5
same,skin scaling in psoriasis mice (score),[4]; [7],0.8333 and 0.5 and 1.833 and 0.6667 (2×) and 1.167
same,skin thickening in psoriasis mice (score),[4]; [7],1.5 (2×) and 1 (3×) and 0.5
same,overall effect on the skin of psoriasis mice (score),[4]; [8],2.667 and 3.667 (2×) and 2.833 (2×) and 3
same,skin redness in psoriasis mice (score),[4]; [8],1.333 and 1 (2×) and 0.6667 and 1.167 and 0.8333
same,skin scaling in psoriasis mice (score),[4]; [8],1.333 and 1.667 and 1.167 and 1 and 1.5 (2×)
same,skin thickening in psoriasis mice (score),[4]; [8],0 and 1 (4×) and 0.5
same,overall effect on the skin of psoriasis mice (score),[4]; [9],3 (2×) and 2.667 and 4.333 and 3.5 (2×)
same,skin redness in psoriasis mice (score),[4]; [9],1.5 and 0.6667 (3×) and 1 and 0.5
same,skin scaling in psoriasis mice (score),[4]; [9],1.5 and 1 and 2.333 and 1.333 and 1.833 and 2.5
same,skin thickening in psoriasis mice (score),[4]; [9],0 and 1 (4×) and 0.5
